Data taken from patent publication US20150209426A1, “TREATMENT OF CANCER” (Boehringer Ingelheim International GmbH, priority 2014, published 2015).

What was measured:
[1] = test system: cleaved PARP in MCF7aro cells; experiment: Cleaved PARP (apoptosis) in MCF7aro cell lysates by Western blot and MSD Apoptosis Panel; assay type: cell-based, human; settings: 72 h, 1 μM of each agent, versus vehicle-treated control
Method: 1.5×10^6 MCF7aro cells were plated in 10 cm dishes in starvation medium (MEM alpha without phenol red, supplemented with 10% charcoal stripped FBS, 2 mM GlutaMAX and 1 mM sodium pyruvate). After overnight incubation, medium was changed to assay medium (MEM alpha without phenol red, supplemented with 10% charcoal stripped FBS, 2 mM GlutaMAX, 1 mM sodium pyruvate and 1 nM androstenedione) and the cells were treated with vehicle (DMSO), or 1 μM of IGF Ab 60833, or 1 μM exemestane, or 1 μM everolimus, or a combination of exemestane and everolimus, or a combination of all three inhibitors. At 72 h post treatment, the cells were lysed on ice with MSD Tris Lysis Buffer containing 20 mM Tris pH 7.5, 150 mM NaCl, 1 mM EDTA, 1 mM EGTA, 1% Triton X-100, completed with protease and phosphatase inhibitor cocktails. Prior to use, freshly prepared 2 mM PMSF was added to the buffer.
(§1) Total protein was isolated and protein concentration was quantified by Bradford protein assay according to the manufacturer's instructions. […]
Cells lysates were prepared according to the Meso Scale Discovery cell lysis protocol. 20 μg of clarified lysate was analyzed in duplicates with MSD Apoptosis Panel Whole Cell Lysate Kit, measuring cleaved PARP signals, according to the manufacturer's instructions. Plates were read on the SECTOR Imager 6000 plate reader.

MCF7aro cells = experiment: Cell proliferation assay of adherently growing MCF7aro breast cancer cells (AlamarBlue cell viability); assay type: cell-based, human; settings: 6 days of incubation, mean of three independent experiments, everolimus up to 50 nM, exemestane up to 200 nM, triple combination with fixed 10 nM IGF Ab 60833
Method: Three independent experiments were conducted to determine the anti-proliferative effect of IGF Ab 60833 in combination with everolimus and exemestane in MCF7aro breast cancer cells. Cell proliferation and viability following 6 days of incubation with test compounds was determined using an assay that monitors the reducing environment of the living cells in each assay well.
For cell proliferation assays and Western Blot analysis the cells were steroid-deprived for 72 h by cultivation in starvation medium (MEM alpha without phenol red, supplemented with 10% charcoal stripped FBS, 2 mM GlutaMAX and 1 mM sodium pyruvate). […]
The final concentration of the solvent DMSO in the test wells was 0.1%. Everolimus and exemestane were tested at 5 concentrations, each measured in duplicate wells, as single agents or in combination.
After 2 days of incubation with test compounds in a humidified incubator at 37° C. and 5% CO2, medium was changed to fresh assay medium and compounds were added again. […] Total fluorescence intensity of each well was then measured in a Wallac VICTOR Multilabel Counter using an excitation wavelength of 544 nm and measuring emission at 590 nm.
At the time of test compound addition, “time zero” (t=0) untreated cell plates were stained with AlamarBlue® Cell Viability Reagent. […] After incubation for 6 hours at 37° C. and 5% CO2, total fluorescence intensity was measured. […]

[2] = test system: AKT and S6 phosphorylation in MCF7aro cells; experiment: Western blot assessment of AKT and S6 phosphorylation status in MCF7aro cell lysates; assay type: cell-based, human; settings: 24 hours, 100 nM IGF Ab 60833, 0.32 nM everolimus, versus vehicle (DMSO) control
Method: 1.8×10^6 MCF7aro cells were plated in 10 cm dishes in starvation medium (MEM alpha without phenol red, supplemented with 10% charcoal stripped FBS, 2 mM GlutaMAX and […]). After overnight incubation, medium was changed to assay medium (MEM alpha without phenol red, supplemented with 10% charcoal stripped FBS, 2 mM GlutaMAX, 1 mM sodium pyruvate and 1 nM androstenedione) and the cells were treated with 100 nM of IGF Ab 60833 or 0.32 nM of everolimus or a combination of antibody and mTORC1 inhibitor. As a control, cells were treated with vehicle (DMSO) only. At 24 h post treatment, the cells were lysed on ice with MSD Tris Lysis Buffer containing 20 mM Tris pH 7.5, 150 mM NaCl, 1 mM EDTA, 1 mM EGTA, 1% Triton X-100, completed with protease and phosphatase inhibitor cocktails. Prior to use, freshly prepared 2 mM PMSF was added to the buffer.
as §1
The effect of IGF Ab 60833 and everolimus, as single agents and in combination, on the phosphorylation of AKT at serine 473 (pAKT S473) and threonine 308 (pAKT T308), and of S6 (pS6) at serine 235/236 was monitored by Western blot analysis of MCF7aro cell lysates prepared 24 hours post treatment.

[3] = test system: advanced hormone receptor-positive, HER2-negative breast cancer; settings: cited from earlier work
[4] = test system: hormone refractory, hormone receptor-positive, HER2-negative metastatic breast cancer; settings: hormone refractory HR+, HER2-negative metastatic breast cancer patients; cited from earlier work

For `CO[C@H]1C[C@@H]2CC[C@@H](C)[C@@](O)(O2)C(=O)C(=O)N2CCCC[C@H]2C(=O)O[C@H]([C@H](C)C[C@@H]2CC[C@@H](OCCO)[C@H](OC)C2)CC(=O)[C@H](C)/C=C(\C)[C@@H](O)[C@@H](OC)C(=O)[C@H](C)C[C@H](C)/C=C/C=C/C=C/1C` [everolimus], the “levels of cleaved PARP (marker for apoptosis)” value [1] was “comparable to or only marginally higher than the level in the vehicle-treated control”, the “maximal mean CGI (cell growth inhibition)” value (MCF7aro cells) was 47% and the “pAKT S473 and T308 levels by Western blot” value [2] was “increased compared to the vehicle (DMSO)-treated control”. The “pS6 (S235/236) signal by Western blot” value [2] was “reduced pS6 signal”.
In the case of `C=C1C[C@@H]2[C@H](CC[C@]3(C)C(=O)CC[C@@H]23)[C@@]2(C)C=CC(=O)C=C12` [exemestane, 6-Methylideneandrosta-1,4-diene-3,17-dione], the “levels of cleaved PARP (marker for apoptosis)” value [1] is given as “comparable to or only marginally higher than the level in the vehicle-treated control”, the “maximal mean CGI (cell growth inhibition)” value (MCF7aro cells) is given as 60% and the median progression-free survival ([3]; by local investigator assessment) is given as 3.2 months. For the same compound, the overall response rate ([3]; in vivo) was 1.7%.
For `CC/C(=C(\c1ccccc1)c1ccc(OCCN(C)C)cc1)c1ccccc1` [tamoxifen], the “time to progression (PFS)” value [4] is listed as 4.5 months.
